Legend:
MDA-MB-468 cells = assay: MTT cell viability assay; assay type: cell-based
Description: (§1) MDA-MB-468 and MDA-MB-436 cells were cultured in Leibovitz’s L-15 medium supplemented with 10% fetal bovine serum. […] All of the cells were cultured at 37 °C in a humidified atmosphere containing 5% CO2.
(§2) Cancer cells were seeded in a density in 96-well plates (2 × 10^3 cells per well). After incubation for 24 h, cancer cells were treated with compounds (0–20 μM) for 72 h.

MDA-MB-231 cells = assay: MTT cell viability assay; assay type: cell-based
Description: as §1, §2

ERK5 = ERK5 (Homo sapiens, UniProt Q13164); assay: ADP-Glo kinase assay; assay type: biochemical
Description: (§3) The full-length human ERK1 or ERK2 with His-tag was cloned into a pET28a vector. hERK1/2 were expressed in Escherichia coli BL21(DE3), and then were purified using sequential Ni-NTA and Superdex 200 column steps. The SEC purified sample was then concentrated to 10 mg/ml and stored at −80 °C with buffer containing 20 mM HEPES pH 7.5, 150 mM NaCl. ERK5 (residues 48–395) containing His and GST tags was cloned into the pFastBac vector, and the recombinant plasmid was extracted. The recombinant plasmid was transformed into the DH10bac strain, and monoclonal was selected for culture. The recombinant Bacmid was then extracted according to the instructions of the Baculovirus Shuttle Vector Bacmid Mini Preparation Kit (Beyotime) and validated by PCR. 1 × 10^6/well Sf9 cells were counted for transfection and then amplified to obtain P3 ERK5 recombinant baculovirus. It was added to 2 × 10^6/mL Sf9 cells and incubated at 27 °C for 72 h on a shaker to express ERK5. Cells were lysed and supernatant was collected on a Ni-NTA for purification, and a 250 mM imidazole eluate was collected. Next, digestion by TEV protease was performed overnight while dialysis was performed in approximately 1000 mL of imidazole-free buffer. The digested ERK5 protein was sequentially purified on the Ni-NTA and GST-tag Purification Resin, followed by size exclusion chromatography on a Superdex 75 column. ERK5 protein was collected and concentrated to 12 mg/ml and stored at −80 °C in buffer containing 50 mM HEPES pH 8.0, 200 mM NaCl, 10% (v/v) glycerol.
(§4) ERK1/2/5 kinase activity assay was conducted using ADP-Glo™ Kinase Assay. 2× ATP solution and 2× kinase & Metal solution were prepared using assay buffer were prepared using assay buffer containing 50 mM Hepes pH 7.5, 10 mM MgCl2; 0.01% Brij35, 1 mM EGTA, 2 mM DTT. Transfer 40 nL compounds to 384 assay plate. Add 2 μL of 2× kinase & Metal solution were mixed and incubated in a 384-assay plate for 10 min at 25 °C. 2 μL of 2×ATP solution was added and incubated at 25 °C for 60 min. And then, each well was supplemented with 4 µL of ADP-Glo^TM reagent and incubated at 25 °C for 40 min. Subsequently, 8 µL of Kinase Detection Reagent was added and incubated at 25 °C for 40 min. Finally, the luminescence signals were recorded. The IC50 values were calculated using GraphPad Prism 9.5 software.

ERK1 = ERK1 (Homo sapiens, UniProt P27361); assay: ADP-Glo kinase assay; assay type: biochemical
Description: as §3, §4

ERK2 = ERK2 (Homo sapiens, UniProt P28482); assay: ADP-Glo kinase assay; assay type: biochemical
Description: as §3, §4

MDA-MB-231 xenograft = MDA-MB-231 xenograft tumor growth inhibition; assay type: in vivo, nude mice (BALB/c-nu); conditions: 50 mg/kg (each drug), intragastric once daily, 16 days, by tumor weight
Description: All procedures were performed in accordance with the Laboratory Animals Welfare Act, the Guide for the Care and Use of Laboratory Animals and the Guidelines and Policies. The rodent experiment was approved by IACUC (Institutional Animal Care and Use Committee) in the Experimental Animal Ethics Committee of West China Hospital (Approval No. 2021672A). 48 female nude mice (BALB/c-nu, 5 weeks, 15–18 g, purchased from Beijing HFK Bio-Technology Co., LTD) were acclimatized for one week in an SPF-grade animal facility (ventilated, 20–25 °C, 50–60% humidity). […] When the tumor volume reached approximately 100 mm^3 (V = L × W^2/2), the mice were randomly divided into six groups (n = 8 per group): (1) Control group (normal saline); (2) 25 mg/kg SKLB-D18-treated group; (3) 50 mg/kg SKLB-D18-treated group; (4) 50 mg/kg BVD-523-treated group; (5) 50 mg/kg XMD8-92-treated group; (6) BVD-523 (50 mg/kg) and XMD8-92 (50 mg/kg) combined treatment group. Drugs were freshly prepared with 5% DMSO, 10% Solutol HS-15, and 85% normal saline on the day of administration. Intragastric administration occurred once daily at the same time for 16 consecutive days. And the body weight and tumor volume of mice were measured every three days. After the administration period, all nude mice were euthanized by cervical dislocation the next day. Tumors and vital organs (heart, liver, spleen, lung, kidney) were dissected, and tumors were weighed, then immediately fixed in 4% paraformaldehyde or stored in −80 °C.

Sequence of ERK2 (P28482 whole entry): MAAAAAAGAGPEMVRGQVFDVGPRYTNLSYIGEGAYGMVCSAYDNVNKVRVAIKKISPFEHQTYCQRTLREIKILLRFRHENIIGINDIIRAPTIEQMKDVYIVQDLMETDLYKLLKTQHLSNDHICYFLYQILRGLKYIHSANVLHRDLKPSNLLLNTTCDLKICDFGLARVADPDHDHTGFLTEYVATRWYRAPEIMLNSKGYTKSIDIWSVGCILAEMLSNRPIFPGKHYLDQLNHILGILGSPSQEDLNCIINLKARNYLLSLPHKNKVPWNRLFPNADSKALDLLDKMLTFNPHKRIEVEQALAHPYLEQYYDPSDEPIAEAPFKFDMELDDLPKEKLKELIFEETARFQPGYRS
Sequence of ERK5 (Q13164 whole entry, the tested form may be a part): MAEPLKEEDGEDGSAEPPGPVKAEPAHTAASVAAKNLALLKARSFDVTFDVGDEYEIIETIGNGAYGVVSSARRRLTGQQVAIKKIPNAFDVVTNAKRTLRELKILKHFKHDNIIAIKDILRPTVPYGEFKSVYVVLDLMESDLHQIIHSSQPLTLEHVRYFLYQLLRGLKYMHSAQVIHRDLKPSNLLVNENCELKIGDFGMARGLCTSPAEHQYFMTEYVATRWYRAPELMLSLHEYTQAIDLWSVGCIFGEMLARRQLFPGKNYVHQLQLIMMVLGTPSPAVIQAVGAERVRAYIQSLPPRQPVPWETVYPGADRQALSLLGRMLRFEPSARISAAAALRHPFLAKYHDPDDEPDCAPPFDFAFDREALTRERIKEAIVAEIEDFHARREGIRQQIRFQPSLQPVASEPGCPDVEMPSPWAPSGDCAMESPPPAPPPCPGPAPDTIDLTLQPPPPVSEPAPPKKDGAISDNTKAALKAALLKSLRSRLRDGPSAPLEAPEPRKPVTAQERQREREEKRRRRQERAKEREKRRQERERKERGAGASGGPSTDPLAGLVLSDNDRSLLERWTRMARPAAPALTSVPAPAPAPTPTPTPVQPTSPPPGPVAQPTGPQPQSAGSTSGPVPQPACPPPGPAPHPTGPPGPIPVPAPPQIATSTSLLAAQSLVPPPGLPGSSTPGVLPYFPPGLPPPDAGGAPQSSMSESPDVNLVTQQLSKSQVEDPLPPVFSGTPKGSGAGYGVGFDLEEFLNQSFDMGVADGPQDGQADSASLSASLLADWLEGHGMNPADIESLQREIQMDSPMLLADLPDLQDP
Sequence of ERK1 (P27361 whole entry): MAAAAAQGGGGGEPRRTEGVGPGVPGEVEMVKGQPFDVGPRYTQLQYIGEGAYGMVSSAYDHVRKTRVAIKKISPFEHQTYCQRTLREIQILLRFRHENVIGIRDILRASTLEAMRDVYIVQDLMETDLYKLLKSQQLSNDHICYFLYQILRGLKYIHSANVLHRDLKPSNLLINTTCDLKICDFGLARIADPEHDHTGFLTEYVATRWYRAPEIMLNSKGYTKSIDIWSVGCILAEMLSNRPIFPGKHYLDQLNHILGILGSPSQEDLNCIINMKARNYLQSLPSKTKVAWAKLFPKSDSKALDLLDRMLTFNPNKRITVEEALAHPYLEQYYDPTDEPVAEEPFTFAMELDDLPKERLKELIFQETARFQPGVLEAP

Row | Compound | Anti-proliferative activity (10 μM, %) MDA-MB-468 (MDA-MB-468 cells) [%] | Anti-proliferative activity (10 μM, %) MDA-MB-231 (MDA-MB-231 cells) [%] | Enzyme inhibitory activity (500 nM, %) ERK5 (ERK5) [%] | Enzyme inhibitory activity (500 nM, %) ERK1 (ERK1) [%] | Enzyme inhibitory activity (500 nM, %) ERK2 (ERK2) [%] | inhibition at 0.5 µM (ERK5; read-out: Enzyme inhibitory activity (500 nM, %) ERK5) [%] | inhibition at 0.5 µM (ERK1; read-out: Enzyme inhibitory activity (500 nM, %) ERK1) [%] | inhibition at 0.5 µM (ERK2; read-out: Enzyme inhibitory activity (500 nM, %) ERK2) [%] | IC50 (MDA-MB-468 cells; Homo sapiens, MDA-MB-468, MTT, 72 h) [µM] | IC50 (MDA-MB-231 cells; Homo sapiens, MDA-MB-231, read-out: IC50 MDA-MB-231, MTT, 72 h) [µM] | tumor inhibition rate (MDA-MB-231 xenograft) [%]
1 | COc1ccc(NC(=O)c2cc(-c3nc(Nc4c(C)nn(C)c4C)ncc3Cl)cs2)cc1 [9d, 4-(5-chloro-2-((1,3,5-trimethyl-1H-pyrazol-4-yl)amino)pyrimidin-4-yl)-N-(4-methoxyphenyl)thio-phene-2-carboxamide] | 24.33 ± 0.84 | 7.54 ± 1.23 | 23.12 ± 3.21 | 45.29 ± 1.30 | 43.22 ± 0.23 |  |  |  |  |  | 
2 | COc1ccc(NC(=O)c2cc(-c3nc(Nc4ccccc4)ncc3Cl)cs2)cc1 [9e] | 25.10 ± 1.53 | 23.33 ± 0.56 | 45.32 ± 0.09 | 77.32 ± 2.34 | 76.45 ± 0.01 |  |  |  |  |  | 
3 | COc1ccc(NC(=O)c2cc(-c3nc(Nc4cccc(N(C)C)c4)ncc3Cl)cs2)cc1 [9h] | 20.15 ± 0.77 | 11.21 ± 0.47 | 65.54 ± 0.88 | 77.02 ± 3.21 | 78.90 ± 2.31 |  |  |  |  |  | 
4 | CN(C)Cc1cccc(Nc2ncc(Cl)c(-c3csc(C(=O)Nc4ccncn4)c3)n2)c1 [18i] | 30.29 ± 0.83 | 41.35 ± 1.20 | 71.14 ± 0.43 | 2.13 ± 1.56 | -1.29 ± 0.02 |  |  |  |  |  | 
5 | Cc1cc(NC(=O)c2cc(-c3nc(Nc4cccc(CN(C)C)c4)ncc3Cl)cs2)ccn1 [18j, 4-(5-chloro-2-((3-((dimethylamino)methyl)phenyl)amino)pyrimidin-4-yl)-N-(2-methylpyridin-4-yl)thiophene-2-carboxamide] | 59.17 ± 2.12 | 39.25 ± 0.21 |  |  |  | 81.8 ± 2.1 | 7.98 ± 0.6 | 5.97 ± 1.02 |  |  | 
6 | CN(C)Cc1cccc(Nc2ncc(Cl)c(-c3csc(C(=O)Nc4ccnn4C)c3)n2)c1 [18k] | -3.93 ± 1.21 | 39.77 ± 0.31 | 86.64 ± 0.89 | 45.23 ± 2.12 | 43.61 ± 1.45 |  |  |  |  |  | 
7 | CN(C)Cc1cccc(Nc2ncc(Cl)c(-c3csc(C(=O)NN4CCN(C)CC4)c3)n2)c1 [18n] | 86.37 ± 0.43 | 54.82 ± 1.21 | 79.74 ± 0.07 | 90.27 ± 1.78 | 91.03 ± 1.23 |  |  |  |  |  | 
8 | CC(C)Nc1cc(-c2c[nH]c(C(=O)N[C@H](CO)c3cccc(Cl)c3)c2)c(Cl)cn1 [BVD-523, reference compound] |  |  |  |  |  |  |  |  | 5.26 ± 0.66 | 6.47 ± 0.19 | 36.01
9 | CCOc1cc(N2CCC(O)CC2)ccc1Nc1ncc2c(n1)N(C)c1ccccc1C(=O)N2C [XMD8-92] |  |  |  |  |  |  |  |  |  |  | 7.75

Reference: article PMC11842588, “A first-in-class selective inhibitor of ERK1/2 and ERK5 overcomes drug resistance with a single-molecule strategy” (Signal Transduction and Targeted Therapy, 2025)
